≈ marks a conversion by molar mass, not a printed value.

The conditions of this data set: buffer; pH 7.4; 200.0 µM.
One may read the kinetic solubility as solubility judged after dilution from a stock solution rather than from solid. The compound `O=C(Nc1cccc(Cl)c1)Nc1csc([N+](=O)[O-])c1` registered a solubility (kinetic) of 0.0005 mg/mL (≈ 1.68 µM).

`O=c1cc(CN2CCN(S(=O)(=O)c3cccc(Cl)c3)CC2)c2ccc(O)cc2o1`: the kinetic solubility came to 0.0133 mg/mL (≈ 30.6 µM).

In turn, `CCCCNC(=S)N1CCn2cccc2C1c1ccccc1` (configuration not stated) returned a solubility (kinetic) of 0.0055 mg/mL (≈ 17.5 µM).

As to `CCCn1c(C(O)c2cccc(OC)c2)nc2ccccc21` (configuration not stated), the kinetic solubility came out at 0.0394 mg/mL (≈ 133 µM).

As to `O=[N+]([O-])c1cccc(CN2CCC(Cc3ccccc3)CC2)c1`, the solubility (kinetic) turned out to be 0.0173 mg/mL (≈ 55.7 µM).

With `CC1CC1C(=O)OCC(=O)c1c(N)n(C)c(=O)n(C)c1=O` (configuration not stated), the kinetic solubility was more than 0.0443 mg/mL.

`Cc1cc(N2CCCC2=O)ccc1S(=O)(=O)NC1CCCCC1` had a kinetic solubility of 0.0293 mg/mL (≈ 87.1 µM).

`O=Cc1cn(Cc2ccc(Br)cc2)c2ccccc12` had a kinetic solubility of less than 0.0007 mg/mL.

Turning to `CC(NC(=O)COC(=O)CN1C(=O)c2ccccc2C1=O)c1ccccc1` (configuration not stated), the kinetic solubility is more than 0.055 mg/mL.

`COC(=O)/C(C#N)=C/c1c(N2CCN(C)CC2)nc2ccccn2c1=O`: the kinetic solubility was more than 0.053 mg/mL.

Regarding `Cc1ccc(-c2nc(NCC3CCCO3)sc2C)cc1` (configuration not stated), the kinetic solubility stood at 0.0242 mg/mL (≈ 83.9 µM).

In turn, `CCOC(=O)c1cn(C2CC2)c2c(F)c(NCCCN(C)C)c(F)cc2c1=O` showed a solubility (kinetic) of 0.0535 mg/mL (≈ 136 µM).

Compound `CC(=O)Nc1c(-c2ccc3ccccc3c2)nc2ccccn12` gave a solubility (kinetic) of 0.0107 mg/mL (≈ 35.5 µM).

The compound `CC(=O)c1ccc(N2CCN(C(=O)c3cccs3)C(C)C2)c(F)c1` (configuration not stated) gave a solubility (kinetic) of more than 0.052 mg/mL.

On to `CCN1CCN(S(=O)(=O)c2ccc(C(C)(C)C)cc2)CC1`, for which the solubility (kinetic) stood at 0.0456 mg/mL (≈ 147 µM).

With `Cn1c(/C(C#N)=C(\O)c2cc(Cl)sc2Cl)nc2ccccc21`, the solubility (kinetic) came out at 0.0009 mg/mL (≈ 2.57 µM).

Take `CCCn1nc(C(=O)NC2CCCC2)c2ccccc2c1=O`: the kinetic solubility was more than 0.0449 mg/mL.

`CN1CCN(C(=S)c2cn(Cc3cccc(F)c3)c3ccccc23)CC1` displayed a solubility (kinetic) of 0.028 mg/mL (≈ 76.2 µM).

Consider `Cc1cc(=O)[nH]c2ccc(S(=O)(=O)N3CCOCC3)cc12`, for which the kinetic solubility came to 0.016 mg/mL (≈ 51.9 µM).

On to `COC(=O)c1ccccc1NC(=O)NCCc1ccccc1OC.Cl`, for which the kinetic solubility came to 0.0063 mg/mL.

The compound `COCCn1c(=S)[nH]c2sc3c(c2c1=O)CCC(C)C3` (configuration not stated) came in with a kinetic solubility of 0.0404 mg/mL (≈ 130 µM).

`Cc1c(C)n(O)c2ccc3nonc3c12` yielded a kinetic solubility of more than 0.0305 mg/mL.

Turning to `Cc1ccccc1NC(=O)CON=C(N)c1ccccc1`, the solubility (kinetic) is more than 0.0425 mg/mL.

Turning to `Cc1ccc(NC(=S)N2CCC(NC(=O)c3ccccc3)CC2)cc1`, the kinetic solubility was found to be 0.0088 mg/mL (≈ 24.9 µM).

For `CC(=O)C1=C(O)C(=O)N(c2ccc(O)cc2)C1c1cccc(F)c1` (configuration not stated), the solubility (kinetic) is more than 0.0491 mg/mL.

Turning to `Cc1ccc(C(=O)O)cc1N=Nc1c(O)[nH]c(=O)[nH]c1=O`, the solubility (kinetic) is more than 0.0435 mg/mL.

In turn, `O=[N+]([O-])c1cccnc1Oc1ccc(OCc2ccccc2)cc1` returned a kinetic solubility of less than 0.0003 mg/mL.

`Cc1cc(SCC(=O)NC2CC2)nc2ccccc12`: the kinetic solubility was more than 0.0409 mg/mL.

On to `CSc1nsc(SCC(=O)N2CCCCC2)n1`, for which the solubility (kinetic) was more than 0.0434 mg/mL.

For the compound `CN(C)C(=S)NC(=O)C12CC3CC(C)(CC(C)(C3)C1)C2`, the kinetic solubility worked out at 0.0274 mg/mL (≈ 93.1 µM).

In turn, `CC(C)CNC1CS(=O)(=O)CC1O.Cl` (configuration not stated) yielded a solubility (kinetic) of more than 0.0366 mg/mL.

As to `CCNC(=O)COC(=O)Cc1ccc(Cl)cc1Cl`, the solubility (kinetic) is more than 0.0435 mg/mL.

`COC(=O)/C(C#N)=C/c1ccc(C)o1` yielded a kinetic solubility of 0.0207 mg/mL (≈ 108 µM).

For `CCCc1cnc(N2CCN(C(=O)c3ccccc3)CC2)nc1`, the solubility (kinetic) is more than 0.0466 mg/mL.

For `O=C(CCN1C(=O)c2ccccc2C1=O)NCCCn1ccnc1`, the kinetic solubility is more than 0.049 mg/mL.

On to `Cc1ccc(C)c(NC(=O)CN(C)C(=O)c2ccncc2)c1`, for which the solubility (kinetic) was 0.0391 mg/mL (≈ 131 µM).

For the compound `CCC(Sc1nc(-c2ccccc2)c(-c2ccccc2)[nH]1)C(=O)O` (configuration not stated), the solubility (kinetic) stood at 0.0448 mg/mL (≈ 132 µM).

`C=CCN(C(=O)CN1CCCCC1)c1nc(-c2ccccc2)cs1` displayed a solubility (kinetic) of 0.0024 mg/mL (≈ 7.03 µM).

Turning to `CCOc1ccc(NC(=O)N2CC(C)OC(C)C2)cc1` (configuration not stated), the solubility (kinetic) was more than 0.0418 mg/mL.

`O=C(Cn1c(=O)oc2ccccc21)Nc1cccc(Cl)c1` registered a kinetic solubility of 0.0021 mg/mL (≈ 6.94 µM).

With `Cn1cccc1C1CCCN1CC(=O)Nc1c(Cl)cc(Cl)cc1Cl` (configuration not stated), the kinetic solubility was 0.0325 mg/mL (≈ 84 µM).

On to `Cc1nonc1C(=O)N1CCCC(Nc2ccc(C(C)C)cc2)C1` (configuration not stated), for which the solubility (kinetic) came out at 0.0328 mg/mL (≈ 99.9 µM).

In the case of `O=C(OCC(=O)N1CCc2ccccc21)c1ccncc1`, the kinetic solubility was 0.0331 mg/mL (≈ 117 µM).

As for `CCC(CC)NC(=O)c1cccc(Oc2ccccc2)c1`, the solubility (kinetic) was 0.0052 mg/mL (≈ 18.4 µM).

Take `CCOC(=O)c1nc2c(=O)n(C)c(=O)n(C)c2n(C)c1=O`: the kinetic solubility is more than 0.0441 mg/mL.

Turning to `O=C(Cc1c[nH]c2ccccc12)Nc1ccc(N2CCOCC2)cc1`, the solubility (kinetic) was found to be 0.0101 mg/mL (≈ 30.1 µM).

The compound `CCCC1=C(C(=O)OCC)C(c2ccco2)C(C#N)=C(N)O1` (configuration not stated) came in with a kinetic solubility of 0.0303 mg/mL (≈ 100 µM).

Compound `CC1CCCC(C)N1C(=O)COC(=O)c1ccc(Br)o1` (configuration not stated) registered a solubility (kinetic) of more than 0.0516 mg/mL.

The compound `COc1cccc(CNC(=O)c2cccnc2Sc2ccccc2)c1` yielded a kinetic solubility of 0.0056 mg/mL (≈ 16 µM).

Compound `O=c1cc(C(F)(F)F)[nH]c2c(OC(F)(F)F)cccc12` showed a kinetic solubility of more than 0.0446 mg/mL.

Regarding `CCN1CCN(c2nc(N(C)c3ccccc3)nc(N)c2[N+](=O)[O-])CC1`, the kinetic solubility was found to be 0.0493 mg/mL (≈ 138 µM).

`CC(=O)c1cccc(NC(=O)c2cc(-c3ccco3)on2)c1`: the kinetic solubility is 0.0021 mg/mL (≈ 7.09 µM).

Values taken from PubChem BioAssay AID1996.
